# Data taken from patent US12162840B2, “Herbicidal compositions” (SYNGENTA PARTICIPATIONS AG, priority 2018, dated 2024).
# What was measured:
# Assay in all cases: B1 Post-emergence efficacy Test 1
# Type in all cases: in vivo
# Details in all cases: post-emergence application, 1000 g/ha, evaluated after 13 days
# [1] = test system: Echinochloa crus-galli (ECHCG)
# Experimental: (§1) Seeds of a variety of test species are sown in standard soil in pots:—Solanum nigrum (SOLNI), Amaranthus retoflexus (AMARE), Setaria faberi (SETFA), Alopecurus myosuroides (ALOMY), Echinochloa crus-galli (ECHCG), Ipomoea hederacea (IPOHE), Lolium perenne (LOLPE). After 8 days cultivation (post-emergence) under controlled conditions in a glasshouse (at 24/16° C., day/night; 14 hours light; 65% humidity), the plants are sprayed with an aqueous spray solution derived from the formulation of the technical active ingredient in acetone/water (50:50) solution containing 0.5% Tween 20 (polyoxyethylene sorbitan monolaurate, CAS RN 9005-64-5). Compounds are applied at 1000 g/ha. The test plants are then grown in a glasshouse under controlled conditions in a glasshouse (at 24/16° C., day/night; 14 hours light; 65% humidity) and watered twice daily. After 13 days, the test is evaluated for the percentage damage caused to the plant. The biological activities are assessed on a five point scale (5=80-100%; 4=60-79%; 3=40-59%; 2=20-39%; 1=0-19%). A blank value in the table is indicative that the compound was not tested on that species.
# [2] = test system: Solanum nigrum (SOLNI)
# Experimental: as §1
# [3] = test system: Setaria faberi (SETFA)
# Experimental: as §1
# [4] = test system: Lolium perenne (LOLPE)
# Experimental: as §1
# [5] = test system: Ipomoea hederacea (IPOHE)
# Experimental: as §1
# [6] = test system: Amaranthus retoflexus (AMARE)
# Experimental: as §1
Structure (SMILES),"percentage damage caused to the plant, five point scale, ECHCG [1]","percentage damage caused to the plant, five point scale, SOLNI [2]","percentage damage caused to the plant, five point scale, SETFA [3]","percentage damage caused to the plant, five point scale, LOLPE [4]","percentage damage caused to the plant, five point scale, IPOHE [5]","percentage damage caused to the plant, five point scale, AMARE [6]"
Cc1nn(C)c(=O)c(-c2c(F)ccc(Cl)c2CCc2ccccc2)c1O [Compound 1.001],5 (5=80-100%),5 (5=80-100%),5 (5=80-100%),5 (5=80-100%),5 (5=80-100%),5 (5=80-100%)
Cc1nn(C)c(=O)c(-c2c(F)ccc(Cl)c2/C=C/c2ccccc2)c1O [Compound 1.002],4 (4=60-79%),5 (5=80-100%),3 (3=40-59%),4 (4=60-79%),5 (5=80-100%),4 (4=60-79%)
Cc1nn(C)c(=O)c(-c2c(F)ccc(Cl)c2CCc2ccc(Cl)cc2)c1O [Compound 1.012],5 (5=80-100%),5 (5=80-100%),5 (5=80-100%),5 (5=80-100%),5 (5=80-100%),5 (5=80-100%)
Cc1nn(C)c(=O)c(-c2c(F)ccc(Cl)c2CCc2ccc(C(F)(F)F)cc2)c1O [Compound 1.018],5 (5=80-100%),5 (5=80-100%),5 (5=80-100%),5 (5=80-100%),5 (5=80-100%),5 (5=80-100%)
Cc1nn(C)c(=O)c(-c2c(F)ccc(Cl)c2CCc2cccnc2)c1O [Compound 1.054],5 (5=80-100%),5 (5=80-100%),5 (5=80-100%),5 (5=80-100%),5 (5=80-100%),5 (5=80-100%)
Cc1nn(C)c(=O)c(-c2c(F)ccc(Cl)c2CCc2ccc(F)c(F)c2)c1O [Compound 1.060],5 (5=80-100%),5 (5=80-100%),5 (5=80-100%),5 (5=80-100%),5 (5=80-100%),5 (5=80-100%)
Cc1nn(C)c(=O)c(-c2c(F)ccc(Cl)c2CCc2ccc(C(F)(F)F)cc2)c1OC(=O)C(C)C [Compound 1.095],5 (5=80-100%),5 (5=80-100%),–,5 (5=80-100%),5 (5=80-100%),5 (5=80-100%)
Cc1ccc(CCc2c(Cl)ccc(F)c2-c2c(OC(=O)C(C)C)c(C)nn(C)c2=O)cc1 [Compound 1.149],5 (5=80-100%),5 (5=80-100%),5 (5=80-100%),5 (5=80-100%),5 (5=80-100%),5 (5=80-100%)
